Results: article PMC7526454 (JCI Insight, 2020)
Where two headings read alike, the source gives them in different places. One block for each molecule: values may come before it.

Experiments:
human serum albumin = biological target: T1, human serum albumin (Homo sapiens, UniProt P02768); experiment: Ligand affinity for albumin by albumin-shift cAMP assays (Schild regression); assay type: in vitro ADME; settings: at 640 μM albumin, calculated from KA
T1 construct: For assays containing albumin from human serum; purchased MilliporeSigma A3782; host or cells: human serum
T1 sequence (P02768 25-609): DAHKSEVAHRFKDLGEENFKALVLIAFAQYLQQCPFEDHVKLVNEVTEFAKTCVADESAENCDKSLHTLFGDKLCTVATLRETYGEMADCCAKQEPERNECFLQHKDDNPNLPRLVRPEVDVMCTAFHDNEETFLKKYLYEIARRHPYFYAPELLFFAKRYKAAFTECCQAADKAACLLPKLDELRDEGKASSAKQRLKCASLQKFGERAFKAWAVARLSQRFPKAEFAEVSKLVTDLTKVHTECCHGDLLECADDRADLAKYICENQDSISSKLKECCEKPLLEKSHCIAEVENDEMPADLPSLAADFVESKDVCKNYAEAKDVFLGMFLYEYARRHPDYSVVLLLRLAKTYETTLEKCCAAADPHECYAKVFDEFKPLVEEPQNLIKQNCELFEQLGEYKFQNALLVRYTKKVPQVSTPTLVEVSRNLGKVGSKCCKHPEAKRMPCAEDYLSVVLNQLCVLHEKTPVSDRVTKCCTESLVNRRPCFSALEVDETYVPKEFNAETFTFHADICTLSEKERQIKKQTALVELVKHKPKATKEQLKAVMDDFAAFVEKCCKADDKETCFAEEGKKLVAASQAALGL
Experimental: Clonal HEK293 cells stably expressing either untagged human GIPR or human GLP-1R at various levels of receptor density were used for measurement of cAMP accumulation using the Gs Dynamic Assay and homogenous time-resolved fluorescence (62AM4PEJ, PerkinElmer). Corning 3570 white microtiter plates were used to collect 10 μL assay medium (DMEM, 31053, [Thermo Fisher Scientific], 2 mM Glutamax [35050, Thermo Fisher Scientific], 20 mM HEPES, 0.1% w/v bovine casein [4765, MilliporeSigma], and 250 μM isobutylmethylxanthine [IBMX] phosphodiesterase inhibitor) from a Multidrop Combi dispenser (Thermo Fisher Scientific). […] Vials of assay-ready cells were rapidly thawed from cryopreservation on the day of the assay. […] Time-resolved fluorescence was quantitated with a Pherastar FSX multilabel reader (BMG Labtech). Fluorescence data were analyzed by the ratio method, calibrated to external standards in a parallel processed plate, and reported as percent activation compared with vehicle minimum and native peptide maximum control wells. […]
Methods to quantify and predict the effect of albumin binding on biological activity in enzyme assays, receptor binding assays, and cell-based assays exist, but they are not currently widely employed ([57]–[59]). The general approach involves performing a bioassay in an albumin-free system and quantifying the effect of systematic titrations of albumin into the system. […]

[1] = steady state plasma total concentration, cited from earlier work
GLP-1R [2] = biological target: T2, GLP-1R (Homo sapiens, UniProt P43220); experiment: ARRB2 recruitment, CHO-K1 PathHunter enzyme fragment complementation; assay type: cell-based
T2 sequence (P43220 24-463): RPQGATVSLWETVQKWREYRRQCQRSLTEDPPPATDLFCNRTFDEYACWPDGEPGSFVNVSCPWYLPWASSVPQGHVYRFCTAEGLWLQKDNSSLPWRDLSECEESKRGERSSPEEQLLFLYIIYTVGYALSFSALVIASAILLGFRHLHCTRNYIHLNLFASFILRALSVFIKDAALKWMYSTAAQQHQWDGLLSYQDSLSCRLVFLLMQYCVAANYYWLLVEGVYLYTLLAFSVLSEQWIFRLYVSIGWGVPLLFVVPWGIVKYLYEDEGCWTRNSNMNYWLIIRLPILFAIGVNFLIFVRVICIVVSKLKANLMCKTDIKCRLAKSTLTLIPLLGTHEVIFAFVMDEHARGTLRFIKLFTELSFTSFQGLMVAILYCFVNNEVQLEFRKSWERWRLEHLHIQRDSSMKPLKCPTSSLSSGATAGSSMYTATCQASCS

SNAP-tagged GLP-1R = biological target: T3, SNAP-tagged GLP-1R (Homo sapiens, UniProt P43220); experiment: Real-time internalization assay, SNAP-tagged receptor; assay type: cell-based; settings: HEK293; read-out: internalization of SNAP-tagged GLP-1R, Emax relative to GLP-1
T3 construct: expressed in transfected cells
T3 sequence (P43220 24-463): as above

GLP-1R [3] = biological target: T2, GLP-1R; experiment: On-cell Western internalization assay, HA-GLP-1R-EGFP HEK293; assay type: cell-based; parameters: expressed in transfected cells; settings: HEK293, surface GLP-1R 30 minutes after ligand, normalized to 1 μM GLP-1(7-36); mean (SEM, n); read-out: GLP-1R internalization, maximum effect relative to GLP-1
[4] = rodents, acute glucose challenge; read-out: in vivo EC50; cited from earlier work
Text: (§1) We recognize that calculating pRO values has caveats (see Methods) and propose its use mainly for generating hypotheses and as a tool to probe mechanistic biology. For perspective, though, when examining the pRO values of other ligands, we observe that GLP-1R occupancy is also relatively low (about 10%). Based on established data, this makes sense in terms of the in vivo sensitivity of the GLP-1R system. […] In humans, active GLP-1 and GI ...

GLP-1R [5] = settings: read-out: in vitro EC50; cited from earlier work
Text: as §1

predicted unbound fraction (human serum albumin): 0.00072
Molecule: CC[C@H](C)[C@H](NC(=O)[C@H](Cc1ccccc1)NC(=O)[C@H](CCC(=O)O)NC(=O)[C@H](CCCCNC(=O)COCCOCCNC(=O)COCCOCCNC(=O)CC[C@H](NC(=O)CCCCCCCCCCCCCCCCC(=O)O)C(=O)O)NC(=O)[C@H](C)NC(=O)[C@H](C)NC(=O)[C@H](CCC(N)=O)NC(=O)CNC(=O)[C@H](CCC(=O)O)NC(=O)[C@H](CC(C)C)NC(=O)[C@H](Cc1ccc(O)cc1)NC(=O)[C@H](CO)NC(=O)[C@H](CO)NC(=O)[C@@H](NC(=O)[C@H](CC(=O)O)NC(=O)[C@H](CO)NC(=O)[C@@H](NC(=O)[C@H](Cc1ccccc1)NC(=O)[C@@H](NC(=O)CNC(=O)[C@H](CCC(=O)O)NC(=O)C(C)(C)NC(=O)[C@@H](N)Cc1cnc[nH]1)[C@@H](C)O)[C@@H](C)O)C(C)C)C(=O)N[C@@H](C)C(=O)N[C@@H](Cc1c[nH]c2ccccc12)C(=O)N[C@@H](CC(C)C)C(=O)N[C@H](C(=O)N[C@@H](CCCNC(=N)N)C(=O)NCC(=O)N[C@@H](CCCNC(=N)N)C(=O)NCC(=O)O)C(C)C [Semaglutide, semaglutide]
Css (total) ([1]; semaglutide 0.5 mg clinical dose): 15 nM
Css (total) ([1]; semaglutide 1 mg clinical dose): 30 nM

Molecule: CC[C@H](C)[C@H](NC(=O)[C@H](CC(C)C)NC(=O)[C@H](Cc1c[nH]c2ccccc12)NC(=O)[C@H](CCC(N)=O)NC(=O)[C@@H](NC(=O)[C@H](Cc1ccccc1)NC(=O)[C@H](C)NC(=O)[C@H](CCCCNC(=O)COCCOCCNC(=O)COCCOCCNC(=O)CC[C@H](NC(=O)CCCCCCCCCCCCCCCCCCC(=O)O)C(=O)O)NC(=O)[C@H](CCC(N)=O)NC(=O)[C@H](C)NC(=O)[C@@H](NC(=O)[C@H](CCCCN)NC(=O)[C@H](CC(=O)O)NC(=O)[C@H](CC(C)C)NC(=O)C(C)(C)NC(=O)[C@@H](NC(=O)[C@H](CO)NC(=O)[C@H](Cc1ccc(O)cc1)NC(=O)[C@H](CC(=O)O)NC(=O)[C@H](CO)NC(=O)[C@@H](NC(=O)[C@H](Cc1ccccc1)NC(=O)[C@@H](NC(=O)CNC(=O)[C@H](CCC(=O)O)NC(=O)C(C)(C)NC(=O)[C@@H](N)Cc1ccc(O)cc1)[C@@H](C)O)[C@@H](C)O)[C@@H](C)CC)[C@@H](C)CC)C(C)C)C(=O)N[C@@H](C)C(=O)NCC(=O)NCC(=O)N1CCC[C@H]1C(=O)N[C@@H](CO)C(=O)N[C@@H](CO)C(=O)NCC(=O)N[C@@H](C)C(=O)N1CCC[C@H]1C(=O)N1CCC[C@H]1C(=O)N1CCC[C@H]1C(=O)N[C@@H](CO)C(N)=O [Tirzepatide]
Emax (GLP-1R [2]): < 10%
Emax (SNAP-tagged GLP-1R): < 40%
Emax (GLP-1R [3]): 40%

Molecule: exendin-4
EC50 [4]: 0.04 nM
EC50 (GLP-1R [5]): 0.26 nM
